From patent publication US20130217735A1, “FUNGICIDAL COMPOSITIONS AND METHODS OF USE” (Agri-Food and BioSciences Institute, priority 2010, published 2013)
Read-outs that look alike come from different tables or passages of the source.

Columns and labels:
[1] = tested on: P. erythroseptica; experiment: Example 8 sensitivity testing of potato tuber pathogens to imazalil derivatives (EC50); type: cell-based, Phytophthora erythroseptica; conditions: for EC50: Trial B, read-out: EC50 (concentration required to reduce mycelial growth by 50%)
Procedure: (§1) For tests with imazalil sulphate and imazalilium docusate prepared according to Trial B, imazalil sulphate (0.5 g, drug pure, Janssen) was dissolved in sterile water (100 ml) to give a stock solution (12.7 mM). […] Dilutions (alternately five-fold and two-fold) of each of these stock solutions were prepared (in water for imazalil sulphate and in ethanol for imazalilium docusate) to produce a dilution series (12.7, 2.54, 1.27, 0.25, and 0.13 mM).
(§2) Log-probability plots of the percentage reduction in growth against the concentration were used to estimate EC50 values (the concentration required to reduce mycelial growth by 50%) (see Table 6).

[2] = tested on: F. coeruleum; experiment: as above; type: cell-based; conditions: isolate F. coeruleum ex B7/06 T8; Trial B; read-out: EC50 (concentration required to reduce mycelial growth by 50%)
Procedure: as §1, §2

[3] = tested on: Phoma exigua; experiment: as above; type: cell-based; conditions: isolate Phoma exigua 9.1; Trial B; read-out: EC50 (concentration required to reduce mycelial growth by 50%)
Procedure: as §1, §2

[4] = tested on: F. sambucinum; experiment: as above; type: cell-based; conditions: Trial B, read-out: EC50 (concentration required to reduce mycelial growth by 50%)
Procedure: as §1, §2

[5] = tested on: F. culmorum; experiment: as above; type: cell-based; conditions: isolate F. culmorum P13, Trial B, read-out: EC50 (concentration required to reduce mycelial growth by 50%)
Procedure: as §1, §2

[6] = tested on: Phoma foveata; experiment: as above; type: cell-based; conditions: isolate Phoma foveata BL2/5 T3, Trial B, read-out: EC50 (concentration required to reduce mycelial growth by 50%)
Procedure: as §1, §2

[7] = Thermogravimetric analysis (thermal stability); type: physicochemical; conditions: TGA under nitrogen, 5° C./min
Procedure: Thermogravimetric analysis was performed on a Mettler Toledo Star^e TGA/DSC (Leicester, UK) under nitrogen. Samples between 5 and 10 mg were placed in open alumina pans and were heated from 25° C. to 600° C. with a heating rate of 5° C./min. Decomposition temperatures (T5% dec) were reported from onset to 5 wt % mass loss Infrared spectra were recorded as neat samples from 4000-450 cm^−1 on a Perkin-Elmer Spectrum 65 FT-IR spectrometer fitted with a Universal ATR Sampling Accessory. Differential scanning calorimetry (DSC) was performed on a Mettler Toledo Star^e DSC (Leicester, UK) under nitrogen. Samples between 5 and 10 mg were heated from 25° C. to 110° C. at a heating rate of 5° C./min followed by a 5 min isotherm. A cooling rate of 5° C./min to −70° C. was followed by a 5 min isotherm at −70° C., and the cycle was repeated twice. A melting transition was observed as single-event peak in the first run. […] Transitions above ambient temperature were confirmed optically on a Stuart SMP3 melting point apparatus.

[8] = tested on: Phytophthora erythroseptica; experiment: Example 7 sensitivity testing of potato tuber pathogens to thiabendazole derivatives; type: cell-based; conditions: in words; Table 5
Procedure: In vitro tests of the IL thiabendazolium docusate were performed in comparison to the neutral fungicide using selected isolates of Fusarium spp., the cause of potato dry rot. F. coeruleum and F. culmorum are sensitive to thiabendazole whereas isolates of F. sambucinum are frequently resistant. Isolates of Phoma spp., the cause of gangrene, and Phytophthora erythroseptica, the cause of pink rot, were also tested. All except F. sambucinum ex SASA were isolated in a laboratory. F. sambucinum ex SASA was supplied by SASA (Science and Advice for Scottish Agriculture, Roddinglaw Road, Edinburgh, EH12 9F, UK).
In each test three replicate plates for each organism per concentration were used and tests were repeated at least once.

[9] = isolate P. erythroseptica BL2/08 P31

C=CCOC(Cn1ccnc1)c1ccc(Cl)cc1Cl (stereo not drawn) [Imazalil, imazalil, reference compound]
EC50 ([1]; Phytophthora erythroseptica, isolate P. erythroseptica Rooster Eire): > 127 µM | EC50 [1, 9]: > 127 µM | EC50 [2]: 12.9 µM | EC50 [3]: 5.6 µM | EC50 ([4]; Fusarium sambucinum, isolate F. sambucinum L'gall 11): 1.8 µM | EC50 ([4]; Fusarium sambucinum, isolate F. sambucinum ex SASA, log-probability plot): 0.7 µM | EC50 ([5]; Fusarium culmorum): 0.4 µM | EC50 ([6]; Boeremia foveata): 2.7 µM

C=CCOC(Cn1ccnc1)c1ccc(Cl)cc1Cl (stereo not drawn) [Imazalilium docusate, imazalilium docusate]
activity against P. erythroseptica ([1]; in words, Table 6): showed some activity | EC50 [1, 9]: 38.4 µM | EC50 ([1]; isolate P. erythroseptica Rooster Eire): 100 µM | EC50 [2]: 19.2 µM | EC50 [3]: 7.3 µM | EC50 ([4]; isolate F. sambucinum L'gall 11): 2.6 µM | EC50 ([4]; isolate F. sambucinum ex SASA, log-probability plot): 1 µM | EC50 [5]: 0.4 µM | EC50 [6]: 4.6 µM | T5% onset (decomposition temperature, onset to 5 wt % mass loss) [7]: 208.8 °C

c1ccc2[nH]c(-c3cscn3)nc2c1 [TBZ docusate, thiabendazolium docusate]
activity against P. erythroseptica compared with thiabendazole alone [8]: more active | T5% onset (decomposition temperature, onset to 5 wt % mass loss) [7]: 252.0 °C

CCn1cc[n+](C)c1.CCn1cc[n+](C)c1.S=C([S-])NCCNC(=S)[S-] [[C2mim]2ebdtc, di(1-ethyl-3-methylimidazolium)ethylenbis-(dithiocarbamate)]
T5% onset (decomposition temperature, onset to 5 wt % mass loss) [7]: 147.1
